Experimental data: patent publication US20130123201A1, “MODULATION OF CYTOKINE-INDUCED CHRONIC INFLAMMATORY RESPONSES” (UNIVERSITY OF MANITOBA, priority 2010, published 2013)
Entries after “also recorded” stand apart in the source; their conditions may differ.

Legend:
phospho-p300 (Ser1834) = experiment: Immunoblot with phospho-p300 (Ser1834) antibody; format: cell-based, human; details: within 15 min, compared to un-stimulated cells
Protocol: (§1) Immunoblots: Cell lysates were prepared in lysis buffer containing 20 mM Tris-HCl pH 7.5, 150 mM NaCl, 1 mM EDTA, 1 mM EGTA, 1 mM sodium fluoride, 1 mM sodium orthovanadate, 2.5 mM sodium pyrophosphate, protease inhibitor cocktail (Sigma-Aldrich) and 1% (v/v) Triton X-100. The lysates were electrophoretically resolved on a 4-12% NuPAGE® Bis-Tris gels (Invitrogen Corporation, Burlington, ON, Canda), followed by transfer to nitrocellulose membranes (Millipore, Canada). The membranes were subsequently probed with either phospho-p300 (Ser1834) polyclonal antibody, monoclonal antibody against phospho-DAPK (Ser308) or monoclonal antibody to glyceraldehyde-3-phosphate dehydrogenase (GAPDH) in TBST (20 mM Tris pH 7.5, 150 mM NaCl, 0.1% Tween 20) containing 5% skimmed milk powder. Affinity purified HRP-linked horse anti-mouse or goat anti-rabbit antibodies were used for detection as required. The membranes were development with Amersham ECL detection system (GE Healthcare, Baie d'Urfe QC, Canada) according to the manufacturer's instructions.
(§2) Immunoblots: Cell lysates were prepared in lysis buffer containing 20 mM Tris-HCl pH 7.5, 150 mM NaCl, 1 mM EDTA, 1 mM EGTA, 1 mM sodium fluoride, 1 mM sodium orthovanadate, 2.5 mM sodium pyrophosphate, protease inhibitor cocktail (Sigma-Aldrich Canada Inc.) and 1% (v/v) Triton X-100. […]

phospho-DAPK (Ser308) = experiment: Immunoblot with phospho-DAPK (Ser308) antibody; format: cell-based, human; details: within 15 min, compared to un-stimulated cells
Protocol: as §1, §2

[1] = tested on: NF-κB in rabbit synoviocyte HIG-82 cells; experiment: NF-κB-reporter luminescence assay; format: cell-based; details: rabbit synovial fibroblast cell line HIG-82, 4 and 6 hr
Protocol: NF-κB-reporter luminensence assay: Rabbit synoviocyte HIG-82 cells were transiently transfected with pNFκB-MetLuc2-Reporter Vector (Clontech laboratories Inc., Mountain View, Calif., USA) or the provided control vector as per the manufacturer's instructions. Various stimulants were added to the transfected cells in culture media containing 1% (v/v) FBS. The cells were stimulated with either recombinant human IL-32 or IL-17, and in parallel with known activators of NF-κB such as pro-inflammatory recombinant human cytokines TNF-αand IL-1β, or bacterial lipopolysaccharide (LPS), for 4 or 6 hr. The activation of NF-κB was monitored by employing the Ready-To-Glow Secreted NF-κB Luciferase Reporter Assay (Clontech) as per the manufacturer's instructions.
NF-κB-reporter luminensence assay: In order to monitor direct NF-κB activation in synoviocytes, a rabbit synoviocyte cell line, HIG-82 (ATCC® CRL-1832) was transiently transfected with pNFκB-MetLuc2-Reporter Vector (Clontech laboratories Inc., Mountain View, Calif., USA) or the provided control vector as per the manufacturer's instructions. Various stimulants were added to the transfected cells in culture media containing 1% (v/v) FBS. […] The activation of NF-κB was monitored by employing the Ready-To-Glow Secreted NF-κB Luciferase Reporter Assay (Clontech Laboratories Inc.) per the manufacturer's instructions.

[2] = tested on: NF-κB subunits p50 and p65; experiment: Translocation of NF-κB subunits p50 and p65 (nuclear extract immunoblots); format: cell-based, human; details: 20 ng/mL, 30 mins
Protocol: Translocation of NF-κB subunits p50 and p65: Nuclear extracts were prepared employing NE-PER® extraction reagents (Thermo Fisher Scientific, Toronto, ON, Canada) as per the manufacturer's instructions. In order to monitor direct NF-κB activation, equivalent nuclear extracts (5-8 μg) were resolved on 4-12% NuPAGE® Bis-Tris gels (Invitrogen Canada Inc.) and transferred to nitrocellulose membranes. The membranes were blocked with TBST containing 3% fish skin gelatin (Sigma-Aldrich), and probed with antibodies specific for either NE-κB subunit p50 or p65, in TBST containing 1% fish gelatin. The membranes were also probed with antibody to human histone protein HADC-1 to assess the equivalent protein loading. […]
The presence of common targets in macrophages was supported by the observation that both IL-32 and IL-17 induced similar level of IL-23 mRNA expression (FIG. 8A) and chemokine IL-8 production in human macrophage-like THP-1 cells (FIG. 7C). […] Therefore to further evaluate similarity of induced downstream response in synovial fibroblasts, this study analyzed the direct activation of transcription factor NF-κB. […] We also monitored the activity of NF-κB using a luminescence assay in-vitro employing rabbit synovial fibroblast cell line (HIG-82) in the presence of IL-32 and IL-17. The activation of NF-κB was monitored after 4 and 6 hr of treatment. […]

IL-17: Recombinant human cytokine IL-17A/F from eBioscience, used as stimulant
Phosphorylation of p300 (Ser1834) by immunoblot (phospho-p300 (Ser1834)): increased phosphorylation | Phosphorylation of DAPK (Ser308) by immunoblot (phospho-DAPK (Ser308)): increased phosphorylation | Activation of transcription factor NF-κB [1]: induced direct activation; also recorded: activated | Nuclear translocation of NF-κB p50 ([2]; FLS cells and macrophage-like THP-1 cells): mediated nuclear translocation | Nuclear translocation of NF-κB subunit p65 ([2]; FLS cells and macrophages): mediated
